Consider 21 molecules from patent US9856220B2 (AbbVie Deutschland GmbH & Co. KG, priority 2011, dated 2018).

Each structure is given as a SMILES string. Some results are limits rather than exact numbers.

For one series, the target named is PDE10A (Homo sapiens (Human), UniProt Q9Y233). Kind of series: Measurement of PDE activity (recombinant PDE, cAMP HTRF). Type of series: biochemical. The conditions noted are these: 20 nM cyclic nucleotide substrate, 60 minutes at 29 C. A digest of the protocol:
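Recombinant human PDE10A in 20 mM Tris-HCl pH 7.5, 10 mM MgCl2, 0.1% BSA with 20 nM cyclic nucleotide substrate; reaction 60 min at 29 C after compound preincubation with enzyme. Residual cAMP detected by HTRF (cAMP-d2/anti-cAMP cryptate); IC50 from inhibitor concentration versus PDE activity.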
For orientation: Time-resolved FRET reads energy transfer from a long-lived donor to a nearby acceptor.

Series [1] is described as follows: Determination of the microsomal half-life / microsomal clearance, rat liver microsomes. Format: in vitro ADME. Particulars: 0.5 μM test substance, 0.25 mg of microsomal protein/ml, pH 7.4, 37° C. The method, then:
(§1) b) Determination of the Microsomal Half-Life:
(§2) The metabolic stability of the compounds of the invention was determined in the following assay.
(§3) The test substances were incubated in a concentration of 0.5 μM as follows:
(§4) 0.5 μM test substance are preincubated together with liver microsomes from different species (from rat, human or other species) (0.25 mg of microsomal protein/ml) in 0.05 M potassium phosphate buffer of pH 7.4 in microtiter plates at 37° C. for 5 min. The reaction is started by adding NADPH (1 mg/mL). After 0, 5, 10, 15, 20 and 30 min, 50 μl aliquots are removed, and the reaction is immediately stopped and cooled with the same volume of acetonitrile. The samples are frozen until analyzed. The remaining concentration of undegraded test substance is determined by MSMS. The half-life (T½) is determined from the gradient of the signal of test substance/unit time plot, it being possible to calculate the half-life of the test substance, assuming first order kinetics, from the decrease in the concentration of the compound with time. The microsomal clearance (mCl) is calculated from mCl=ln 2/T½/(content of microsomal protein in mg/ml)×1000 [ml/min/mg]
(In general: Liver microsomes are a subcellular fraction often used to study metabolism.)

A short description of series [2]: Determination of the microsomal half-life / microsomal clearance, human liver microsomes. Format: in vitro ADME. The conditions noted are these: 0.5 μM test substance, 0.25 mg of microsomal protein/ml, pH 7.4, 37° C. The method, then:
as §1, §2, §3, §4

Series [3] concerns rats. The conditions noted are these: cited from earlier work.
Series [4] has as its system rats. The conditions noted are these: cited from earlier work. The source holds these as a separate data set.
The subject of series [5] is rats. The conditions noted are these: rat, in vivo; cited from earlier work.

Sequence of PDE10A (Q9Y233 whole entry, species assumed): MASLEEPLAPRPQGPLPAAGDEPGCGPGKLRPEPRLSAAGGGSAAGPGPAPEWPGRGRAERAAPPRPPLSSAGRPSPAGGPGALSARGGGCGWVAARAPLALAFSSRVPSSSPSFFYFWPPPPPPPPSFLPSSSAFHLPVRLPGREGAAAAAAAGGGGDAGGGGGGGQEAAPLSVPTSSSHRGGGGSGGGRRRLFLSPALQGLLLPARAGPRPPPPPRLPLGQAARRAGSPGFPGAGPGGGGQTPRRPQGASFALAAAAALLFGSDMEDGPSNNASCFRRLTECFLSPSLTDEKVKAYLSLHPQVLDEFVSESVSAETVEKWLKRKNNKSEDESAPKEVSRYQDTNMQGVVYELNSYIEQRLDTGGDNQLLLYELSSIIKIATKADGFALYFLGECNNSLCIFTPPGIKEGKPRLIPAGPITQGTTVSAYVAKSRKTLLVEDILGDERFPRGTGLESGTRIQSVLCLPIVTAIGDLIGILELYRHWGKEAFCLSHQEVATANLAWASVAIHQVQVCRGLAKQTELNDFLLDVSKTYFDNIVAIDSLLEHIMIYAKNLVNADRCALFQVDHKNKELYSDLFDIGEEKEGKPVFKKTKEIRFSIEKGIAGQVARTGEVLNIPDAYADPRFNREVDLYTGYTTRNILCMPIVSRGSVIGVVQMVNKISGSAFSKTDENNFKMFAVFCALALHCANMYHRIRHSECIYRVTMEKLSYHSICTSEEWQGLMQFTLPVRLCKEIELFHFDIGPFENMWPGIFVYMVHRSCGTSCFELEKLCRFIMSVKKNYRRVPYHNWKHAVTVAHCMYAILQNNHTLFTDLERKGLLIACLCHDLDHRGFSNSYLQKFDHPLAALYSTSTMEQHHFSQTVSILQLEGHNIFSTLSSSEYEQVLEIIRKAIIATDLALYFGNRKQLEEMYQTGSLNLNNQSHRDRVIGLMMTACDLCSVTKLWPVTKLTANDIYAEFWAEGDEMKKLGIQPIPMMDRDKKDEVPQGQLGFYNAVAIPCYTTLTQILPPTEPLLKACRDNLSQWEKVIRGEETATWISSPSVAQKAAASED

Turning to `CCC(CC)n1cc(C(=O)NC2CCc3ccc(OC)cc32)c2cc(OC)c(OC)cc2c1=O` (stereo not shown) [Example 256, 6,7-Dimethoxy-N-(6-methoxy-2,3-dihydro-1H-inden-1-yl)-1-oxo-2-(pentan-3-yl)-1,2-dihydroisoquinoline-4-carboxamide], at PDE10A, the IC50 (usually the midpoint of a concentration-inhibition curve) is under 100 nM. Besides, the “Rat mCl” value in series [1] is “+ (100-220 μl min^−1 mg^−1)”. The “Human mCl” value in series [2] is given as “∘ (>220 μl min^−1 mg^−1)”.

For the molecule `CCC(CC)n1cc(C(=O)NCc2ccc(C)o2)c2cc(OC)c(OC)cc2c1=O` [Example 251, 6,7-Dimethoxy-N-((5-methylfuran-2-yl)methyl)-1-oxo-2-(pentan-3-yl)-1,2-dihydroisoquinoline-4-carboxamide], the IC50 on PDE10A fell in the range of 100 to 200 nM. Also, the “Rat mCl” value in series [1] was “∘ (>220 μl min^−1 mg^−1)”. The “Human mCl” value in series [2] is “+ (100-220 μl min^−1 mg^−1)”.

Take `CCn1cc(C(=O)Nc2ccc(C)cc2)c2cc(OC)c(OC)cc2c1=O` [Example 158, 2-Ethyl-6,7-dimethoxy-1-oxo-N-p-tolyl-1,2-dihydroisoquinoline-4-carboxamide]: the IC50 at PDE10A fell in the range of 100 to 200 nM. Besides, the “Rat mCl” value in series [1] is “++ (<100 μl min^−1 mg^−1)”. For the same molecule, the “Human mCl” value in series [2] was “++ (<100 μl min^−1 mg^−1)”.

On to `CCn1cc(C(=O)Nc2ccc(N3CCOCC3)cc2)c2cc(OC)c(OC)cc2c1=O` [Example 141, 2-Ethyl-6,7-dimethoxy-N-(4-morpholinophenyl)-1-oxo-1,2-dihydroisoquinoline-4-carboxamide], for which the IC50 at PDE10A was 100 to 200 nM. The “Rat mCl” value in series [1] is on record as “++ (<100 μl min^−1 mg^−1)”. Moreover, the “Human mCl” value in series [2] was “++ (<100 μl min^−1 mg^−1)”.

For the molecule `COc1ccc(Cc2nccc3cc(OC)c(OC)cc23)cc1OC` [Papaverine, papaverine], the “catalepsy on its own” value in the series on rats [3] (compound alone) is “did not cause catalepsy on its own”. The “cataleptic effect of the D2 receptor antagonist haloperidol” value in the series on rats [3] (with haloperidol) is given as “potentiated the cataleptic effect”. The “hyperactivity induced by PCP” value in the series on rats [4] was “reduced hyperactivity”. Moreover, the “reduction of amphetamine-induced hyperactivity” value with rats [5] is “insignificant”.

`CCC(CC)n1cc(C(=O)NCc2cc(C)no2)c2cc(OC)c(OC)cc2c1=O` [Example 241, 6,7-Dimethoxy-N-((3-methylisoxazol-5-yl)methyl)-1-oxo-2-(pentan-3-yl)-1,2-dihydroisoquinoline-4-carboxamide]: on PDE10A, the IC50 was 100 to 200 nM. For the same molecule, in series [1], the “Rat mCl” value is recorded as “+ (100-220 μl min^−1 mg^−1)”. Also, the “Human mCl” value in series [2] is on record as “++ (<100 μl min^−1 mg^−1)”.

For the molecule `CCC(CC)n1cc(C(=O)NC2CCc3ncccc32)c2cc(OC)c(OC)cc2c1=O` (single isomer, unassigned; (-)) [Example 200, (−)-2-(1-Ethyl-propyl)-6,7-dimethoxy-1-oxo-1,2-dihydro-isoquinoline-4-carboxylic acid (6,7-dihydro-5H-[1]pyrindin-5-yl)-amide], the IC50 at PDE10A lay within 200 to 500 nM. In addition, in series [1], the “Rat mCl” value was “++ (<100 μl min^−1 mg^−1)”. Further, the “Human mCl” value in series [2] is “++ (<100 μl min^−1 mg^−1)”.

On to `CCC(CC)n1cc(C(=O)N[C@H]2CCc3ccccc32)c2cc(OC)c(OC)cc2c1=O` [Example 192, 2-(1-Ethyl-propyl)-6,7-dimethoxy-1-oxo-1,2-dihydro-isoquinoline-4-carboxylic acid (S)-indan-1-ylamide], for which, at PDE10A, the IC50 is under 100 nM. Moreover, in series [1], the “Rat mCl” value is given as “+ (100-220 μl min^−1 mg^−1)”. The “Human mCl” value in series [2] was “∘ (>220 μl min^−1 mg^−1)”.

`CCn1cc(C(=O)NCc2ccc(C3CC3)cc2)c2cc(OC)c(OC)cc2c1=O` [Example 318, N-[(4-Cyclopropylphenyl)methyl]-2-ethyl-6,7-dimethoxy-1-oxo-isoquinoline-4-carboxamide]: on PDE10A, the IC50 is 200 to 500 nM. Moreover, the “Rat mCl” value in series [1] is given as “++ (<100 μl min^−1 mg^−1)”. Also, the “Human mCl” value in series [2] was “++ (<100 μl min^−1 mg^−1)”.

With `CCC(CC)n1cc(C(=O)NCc2nccs2)c2cc(OC)c(OC)cc2c1=O` [Example 228, 2-(1-Ethyl-propyl)-6,7-dimethoxy-1-oxo-1,2-dihydro-isoquinoline-4-carboxylic acid (thiazol-2-ylmethyl)-amide], at PDE10A, the IC50 is 100 to 200 nM. The “Rat mCl” value in series [1] is “++ (<100 μl min^−1 mg^−1)”. Also, the “Human mCl” value in series [2] was “++ (<100 μl min^−1 mg^−1)”.

`CCC(CC)n1cc(C(=O)NCc2ncc(C)s2)c2cc(OC)c(OC)cc2c1=O` [Example 239, 6,7-Dimethoxy-N-((5-methylthiazol-2-yl)methyl)-1-oxo-2-(pentan-3-yl)-1,2-dihydroisoquinoline-4-carboxamide]: the IC50 on PDE10A lay in the range of 100 to 200 nM. Further, the “Rat mCl” value in series [1] is reported as “+ (100-220 μl min^−1 mg^−1)”. Moreover, in series [2], the “Human mCl” value is listed as “+ (100-220 μl min^−1 mg^−1)”.

Consider `CCn1cc(C(=O)NCc2ccc(C)cc2)c2cc(OC)c(OC)cc2c1=O` [Example 161, 2-Ethyl-6,7-dimethoxy-N-(4-methylbenzyl)-1-oxo-1,2-dihydroisoquinoline-4-carboxamide], for which the IC50 on PDE10A was under 100 nM. Besides, the “Rat mCl” value in series [1] is reported as “++ (<100 μl min^−1 mg^−1)”. Moreover, the “Human mCl” value in series [2] is given as “++ (<100 μl min^−1 mg^−1)”.

With `CCn1cc(C(=O)NCc2csc(C)n2)c2cc(OC)c(OC)cc2c1=O` [Example 316, 2-Ethyl-6,7-dimethoxy-N-[(2-methylthiazol-4-yl)methyl]-1-oxo-isoquinoline-4-carboxamide], the IC50 on PDE10A was in the range of 200 to 500 nM. In addition, in series [1], the “Rat mCl” value is “++ (<100 μl min^−1 mg^−1)”. In series [2], the “Human mCl” value is “++ (<100 μl min^−1 mg^−1)”.

As for `CCC(C)n1cc(C(=O)NC2CCc3ccccc32)c2cc(OC)c(OC)cc2c1=O` (stereo not shown) [Example 197, 2-sec-Butyl-6,7-dimethoxy-1-oxo-1,2-dihydro-isoquinoline-4-carboxylic acid indan-1-ylamide], the IC50 on PDE10A is 100 to 200 nM. Besides, the “Rat mCl” value in series [1] is recorded as “+ (100-220 μl min^−1 mg^−1)”. The “Human mCl” value in series [2] is listed as “∘ (>220 μl min^−1 mg^−1)”.

As for `CCC(CC)n1cc(C(=O)NCc2ccccn2)c2cc(OC)c(OC)cc2c1=O` [Example 263, 6,7-Dimethoxy-1-oxo-2-(pentan-3-yl)-N-(pyridin-2-ylmethyl)-1,2-dihydroisoquinoline-4-carboxamide], the IC50 at PDE10A lay in the range of 100 to 200 nM. In addition, the “Rat mCl” value in series [1] is “++ (<100 μl min^−1 mg^−1)”. In addition, the “Human mCl” value in series [2] is “++ (<100 μl min^−1 mg^−1)”.

On to `CCn1cc(C(=O)NC2CCc3ccc(F)cc32)c2cc(OC)c(OC)cc2c1=O` (stereo not shown) [Example 171, 2-Ethyl-N-(6-fluoro-2,3-dihydro-1H-inden-1-yl)-6,7-dimethoxy-1-oxo-1,2-dihydroisoquinoline-4-carboxamide], for which, on PDE10A, the IC50 fell in the range of 200 to 500 nM. Also, in series [1], the “Rat mCl” value is “++ (<100 μl min^−1 mg^−1)”. The “Human mCl” value in series [2] is reported as “++ (<100 μl min^−1 mg^−1)”.

For the molecule `CCC(CC)n1cc(C(=O)NCc2ccccc2S(=O)(=O)N2CCOCC2)c2cc(OC)c(OC)cc2c1=O` [Example 202, 2-(1-Ethyl-propyl)-6,7-dimethoxy-1-oxo-1,2-dihydro-isoquinoline-4-carboxylic acid 2-(morpholine-4-sulfonyl)-benzylamide], the IC50 at PDE10A is under 100 nM. The “Rat mCl” value in series [1] was “+ (100-220 μl min^−1 mg^−1)”. In addition, the “Human mCl” value in series [2] is reported as “∘ (>220 μl min^−1 mg^−1)”.

With `CCn1cc(C(=O)NC2CCc3sccc32)c2cc(OC)c(OC)cc2c1=O` (stereo not shown) [Example 172, N-(5,6-Dihydro-4H-cyclopenta[b]thiophen-4-yl)-2-ethyl-6,7-dimethoxy-1-oxo-1,2-dihydroisoquinoline-4-carboxamide], the IC50 on PDE10A lay in the range of 100 to 200 nM. For the same molecule, the “Rat mCl” value in series [1] is on record as “++ (<100 μl min^−1 mg^−1)”. The “Human mCl” value in series [2] was “++ (<100 μl min^−1 mg^−1)”.

With `CCC(CC)n1cc(C(=O)NCc2csc(C)n2)c2cc(OC)c(OC)cc2c1=O` [Example 248, 6,7-Dimethoxy-N-((2-methylthiazol-4-yl)methyl)-1-oxo-2-(pentan-3-yl)-1,2-dihydroisoquinoline-4-carboxamide], at PDE10A, the IC50 fell in the range of 100 to 200 nM. Besides, the “Rat mCl” value in series [1] is reported as “++ (<100 μl min^−1 mg^−1)”. Moreover, in series [2], the “Human mCl” value is listed as “+ (100-220 μl min^−1 mg^−1)”.

`CCc1ccc(CNC(=O)c2cn(CC)c(=O)c3cc(OC)c(OC)cc23)cc1` [Example 313, 2-Ethyl-N-[(4-ethylphenyl)methyl]-6,7-dimethoxy-1-oxo-isoquinoline-4-carboxamide]: the IC50 at PDE10A was in the range of 200 to 500 nM. In addition, the “Rat mCl” value in series [1] is listed as “++ (<100 μl min^−1 mg^−1)”. The “Human mCl” value in series [2] is “++ (<100 μl min^−1 mg^−1)”.

Consider `CCCCNC(=O)c1cn(CC)c(=O)c2cc(OC)c(OCCc3ccc4ccccc4n3)cc12` [Example 136, 2-Ethyl-7-methoxy-1-oxo-6-(2-quinolin-2-yl-ethoxy)-1,2-dihydro-isoquinoline-4-carboxylic acid butylamide], for which the IC50 on PDE10A is under 100 nM. The “Rat mCl” value in series [1] is listed as “∘ (>220 μl min^−1 mg^−1)”. For the same molecule, the “Human mCl” value in series [2] was “+ (100-220 μl min^−1 mg^−1)”.
